{"source": "paper PMC3412733", "about": "“Identification and recombinant expression of anandamide hydrolyzing enzyme from Dictyostelium discoideum” (BMC Microbiology, 2012)", "target": "T1, MBP-FAAH (Dictyostelium FAAH) (Dictyostelium discoideum, UniProt Q8MMR8)", "T1 construct": "gene DDB_G0275967; full length (637 residues) with N-terminal MBP and 6xHis tags kept, expressed in E. coli BL21(DE3) (pCWMalET), amylose resin purified", "T1 sequence (Q8MMR8 1-637)": "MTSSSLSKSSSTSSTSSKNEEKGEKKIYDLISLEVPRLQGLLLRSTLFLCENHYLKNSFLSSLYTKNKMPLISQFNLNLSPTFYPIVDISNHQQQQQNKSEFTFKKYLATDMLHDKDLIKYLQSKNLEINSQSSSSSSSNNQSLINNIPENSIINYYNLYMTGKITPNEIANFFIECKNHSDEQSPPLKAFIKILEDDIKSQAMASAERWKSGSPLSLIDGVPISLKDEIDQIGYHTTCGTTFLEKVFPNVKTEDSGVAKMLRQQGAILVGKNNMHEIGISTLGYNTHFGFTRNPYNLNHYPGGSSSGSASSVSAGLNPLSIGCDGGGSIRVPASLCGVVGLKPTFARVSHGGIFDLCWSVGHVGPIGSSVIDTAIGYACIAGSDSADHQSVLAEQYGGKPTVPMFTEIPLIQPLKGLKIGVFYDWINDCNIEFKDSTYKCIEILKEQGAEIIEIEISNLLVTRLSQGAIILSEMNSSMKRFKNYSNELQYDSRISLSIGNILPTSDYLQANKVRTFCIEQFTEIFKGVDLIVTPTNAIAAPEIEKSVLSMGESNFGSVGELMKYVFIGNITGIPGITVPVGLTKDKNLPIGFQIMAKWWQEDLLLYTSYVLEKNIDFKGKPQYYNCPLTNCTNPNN", "assay": "CE-ES-MS of product arachidonic acid", "format": "biochemical", "conditions": "pH 9.0, 50 mM NaCl, 10% DMSO, 37°C, 30 min", "data": [{"smiles": "CCCCC/C=C\\C/C=C\\C/C=C\\C/C=C\\CCCC(=O)NCCO", "note": "[anandamide]", "values": [{"measurement": "CE-ES-MS of product arachidonic acid", "result": "hydrolyzed anandamide to free arachidonic acid and ethanolamine as determined by CE-ES-MS"}]}]}
